Holding throughout (assay type): functional
For one assay, the system named is Escherichia coli. As to the kind of experiment: Compound (isolated from leaves of Cistus monspeliensis) was tested for antimicrobial activity against Escherichia coli (ATCC 25922).
The test system of another assay is Staphylococcus aureus. As to the kind of experiment: Compound (isolated from leaves of Cistus monspeliensis) was tested for antimicrobial activity against Staphylococcus aureus (ATCC 6538).
The subject of a further assay is Staphylococcus hominis. As to the kind of experiment: Compound (isolated from leaves of Cistus monspeliensis) was tested for antimicrobial activity against Staphylococcus hominis (ATCC 27844).
Another assay has as its system Klebsiella pneumoniae. Kind of assay: Compound (isolated from leaves of Cistus monspeliensis) was tested for antimicrobial activity against Klebsiella pneumoniae (ATCC 13883).
The test system of assay [1] is Staphylococcus epidermidis. As to the kind of experiment: Compound (isolated from leaves of Cistus monspeliensis) was tested for antimicrobial activity against Staphylococcus epidermidis (ATCC 12228).

SMILES strings stand for the structures. Converted amounts (≈) assume the structure as drawn.

Experimental findings from ChEMBL document CHEMBL1135013, “A simple and rapid method for the differentiation of C-13 manoyl oxide epimers in biologically important samples using GC-MS analysis supported with NMR spectroscopy and computational chemistry results” (2002) are described below.

On to `CN[C@@H]1[C@H](O[C@H]2[C@H](O[C@H]3[C@H](O)[C@@H](O)[C@H](N=C(N)N)[C@@H](O)[C@@H]3N=C(N)N)O[C@@H](C)[C@]2(O)C=O)O[C@@H](CO)[C@H](O)[C@H]1O` [STREPTOMYCIN], for which the MIC50 in the assay on Escherichia coli is 0.6 µg/mL (≈ 1.03 µM); against Staphylococcus aureus, 2.1 µg/mL (≈ 3.61 µM); with Staphylococcus hominis, 2.1 µg/mL (≈ 3.61 µM); against Klebsiella pneumoniae, 0.6 µg/mL (≈ 1.03 µM); in assay [1], 2.1 µg/mL (≈ 3.61 µM).

As for `C=C[C@@]1(C)CC[C@@H]2[C@](C)(CCC3C(C)(C)CCC[C@]32C)O1` (some centres not stated), the MIC50 against Escherichia coli and against Klebsiella pneumoniae was > 2000 µg/mL throughout.

As a reminder, the MIC50 is the lowest concentration that inhibits either 50% of growth or 50% of the strains tested, depending on the study.
